Data reported in patent US20030232057A1, “Method and composition for inducing tolerance to an antigenic material” (priority 2000, published 2003).

How the values were obtained:
Assay type in all cases: in vivo, Balb/c mice
[1] = test system: BLG-stimulated lymphocytes; test: Prostaglandin E2 measurement (EIA) in culture media of lymphocytes from treated mice; settings: mice fed whey proteins 3 mg/g on day 0; drug daily day -3 to day 4; 5 days after tolerization; whey vs non-tolerized control mice, drugs vs whey proteins fed mice
Method: (§1) To start the experiment the mice were forced fed and/or injected i.p. with butyrate (which promotes COX-2 activity), ibuprofen (which inhibits COX activity) or saline (control) daily from day −3 to day 4. On day 0, the mice were fed by gastric feeding whey proteins (3 mg/g of body weight) or same volume of saline water. Gavage products were dissolved in 0.3 ml of saline water. At day 4 of each experiment, all mice were immunized by intraperitoneal injection of 0.08 mg of BLG as well as 0.08 mg of OVA in 0.04 ml sterile saline mixed with 0.16 ml 2% Al(OH)3 (Superfos Biosecotr A/S, Denmark). At day 4 or at day 26, blood samples were obtained from cardiac aortic punction under 3% Isoflurane anaesthesia (Abbott SA). Immediately after death, obtained by cervical dislocation, spleens were removed and pooled according to group of treatment in 20 ml chilled RPMI supplemented with 5% FCS. […] (^3H)Tdr (Amersham, Zurich) was added for the final 6 hours of culture and the plates were harvested and analyzed by scintillation counting (TopCount, Canberra Packard, Zurich). […] Stimulation indices were calculated as the ratio of blank-subtracted test and control values at 2.5 mg BLG/mL and 50 μg PHA/mL. PGE2 levels in the culture media, from lymphocytes cultured for 6 hrs or 12 hrs, were determined by using an enzyme immunoassay (EIA) kit (Cayman Chemical, ). […]

[2] = test system: BLG-stimulated lymphocytes; test: Cytokine ELISA (IFN-γ) in supernatants of BLG-stimulated spleen cells from treated mice; settings: mice fed whey proteins 3 mg/g on day 0; drug daily day -3 to day 4; 5 days after tolerization; whey vs non-tolerized control mice, drugs vs whey proteins fed mice
Method: as §1, with “PHA/mL. […] IFN-γ” for “PHA/mL. PGE2”, “levels were measured using cytokine specific ELISA kit Endogen; which were performed according to” for “levels in”, “the manufacturers' instructions.” for “the culture media, from lymphocytes cultured for 6 hrs or 12 hrs, were determined by using an enzyme immunoassay (EIA) kit (Cayman Chemical, ).”

[3] = test system: spleen cells; test: Specific proliferation assay ((3H)Tdr incorporation) of spleen cells from treated mice; settings: 4 days post-tolerization; index below 0.5 indicates tolerized mice; drugs compared with whey proteins fed mice
Method: as §1, with “FCS. Spleen cell solutions were homogenized through a cellular sieve (Falcon) and purified from red cells using Histopaque density centrifugation (Sigma) at 390×g for 20 min.” for “FCS.”, “PHA/mL.” for “PHA/mL. PGE2 levels in the culture media, from lymphocytes cultured for 6 hrs or 12 hrs, were determined by using an enzyme immunoassay (EIA) kit (Cayman Chemical, ).”

[4] = test system: anti-BLG IgE; test: Measurement of specific anti-BLG IgE antibody in serum by ELISA; settings: 26 days post-tolerization; whey vs non-tolerized mice (p<0.05), drugs vs whey proteins fed mice
Method: To start the experiment the mice were forced fed and/or injected i.p. with butyrate (which promotes COX-2 activity), ibuprofen (which inhibits COX activity) or saline (control) daily from day −3 to day 4. On day 0, the mice were fed by gastric feeding whey proteins (3 mg/g of body weight) or same volume of saline water. Gavage products were dissolved in 0.3 ml of saline water. At day 4 of each experiment, all mice were immunized by intraperitoneal injection of 0.08 mg of BLG as well as 0.08 mg of OVA in 0.04 ml sterile saline mixed with 0.16 ml 2% Al(OH)3 (Superfos Biosecotr A/S, Denmark). […] (^3H)Tdr (Amersham, Zurich) was added for the final 6 hours of culture and the plates were harvested and analyzed by scintillation counting (TopCount, Canberra Packard, Zurich). […] Stimulation indices were calculated as the ratio of blank-subtracted test and control values at 2.5 mg BLG/mL and 50 μg PHA/mL. […] Optical densities were measured at 492 nm, after 15 mn of incubation at room temperature, using a Dynatech MR500 ELISA reader (Dynatech, Embrach-Embraport, Switzerland. Pooled samples from twenty non immunized female mice were used as negative controls in each plate. The cut-off dilutions were determined by calculating the dilution of the samples which gave twice the absorbance of the negative controls. Titers were expressed as the log10 of the reciprocal of the cut-off dilution.

CC(C)Cc1ccc(C(C)C(=O)O)cc1 (stereo not shown) [ibuprofen]
not observed: PGE2 production by BLG-stimulated lymphocytes in culture [1] | INF-γ production by BLG-stimulated lymphocytes in culture [2] | proliferative response index (stimulation index) [3] | humoral anti-BLG IgE titers [4]
